Results reported in patent US10077289B2, “Cyclosporins modified on the MeBmt sidechain by heterocyclic rings” (priority 2015, dated 2018).
≈ marks a conversion by molar mass, not a printed value. Like-named read-outs stand apart in the source and are kept apart here.

Legend:
[1] = Water Solubility Assay (measured in pH 7.8 buffer); type: physicochemical; conditions: 25 °C, kinetic from dmso stock
Method: Water Solubility Assay (Measured in pH 7.8 Buffer)
The aqueous solubility of a compound of Formula I in buffer (pH 7.8) was measured by recording the onset of precipitation of the compound as a function of increasing concentration. The onset of precipitation, if it occurred, was detected by an increase in absorbance at 650 nm.
Assay Buffer: 35 mM HEPES pH 7.8
Stock solutions of Control and Test Compounds: 10 mM in 100% DMSO.
10 mM stock solutions of control and test compounds were prepared in 100% DMSO.
Assay buffer (247.5 μl) was placed into flat bottomed transparent 96-well plate. For blank samples DMSO (2.5 μl) was added. For test and control samples 2.5 μl of the appropriate DMSO dilution stocks were added to the appropriate well. All test and control compounds were performed in triplicate.
The plates were sealed with adhesive plate seal and shaken at 250 rpm at 25° C. for 18 h on a plate shaker. After incubation the plate seals were taken off and any bubbles observed in wells removed. The plates were read on a SpectraMaxM5 with a 5 s pre-shake at 650 nm. Data files were transferred to the appropriate worksheet and the solubility range of the compounds was calculated from the data. The values shown in the Tables indicate the concentration in μM (micromolar) at which the compound remains in solution.

[2] = target: Human recombinant cyclophilin A (Cyp A) (Homo sapiens (Human), UniProt P62937); experiment: Protease-free PPIase assay
Method: Protease-Free PPIase Assay
The protease-free PPIase assay measures the rate of cis to trans conversion of a peptide substrate catalyzed by the enzyme cyclophilin A. Addition of a cyclophilin A inhibitor (e.g., a test compound) slows the catalyzed rate and a Ki value is obtained.
35 mM HEPES pH 7.8, filtered through a 0.2 μm filter. 50 μM DTT was added prior to use each day and then the buffer was stored on ice.
Human recombinant cyclophilin A (Cyp A) (Sigma C3805) enzyme was diluted to 1 μM with enzyme dilution buffer (20 mM HEPES pH 7.8, 40% glycerol, 50 μM DTT and 1 μM BSA) and stored at −20° C.
Succinimide-Ala-Ala-Pro-Phe-p-nitroanilide (SUC-AAPF-pNA) (from Bachem AG, L-1400), 20 mg/ml prepared in 0.5 M LiCl in trifluoroethanol.
The temperature is monitored by the use of a temperature probe. To prevent UV degradation of test compounds, the light below 290 nm was blocked using a glass slide in the light path. 1.5 ml of the assay buffer was put into a 3 ml quartz cuvette and cooled to 10.0±0.1° C. while stirring (vigorous but not so fast as to produce cavitation). The inhibitor was diluted in 100% DMSO, and then added to the assay to a maximum final concentration of 0.5% DMSO in the assay. A blank spectrum was obtained, then 3 μL of enzyme was added (2 nM final concentration) and then 3 μL substrate (60 μM final concentration) added. The absorbance was measured at 330 nm for 300 s or 500 s for blank runs (NOTE: the substrate must be added in one quick injection and the measurements started immediately to minimize mixing errors).
A first order rate equation was fitted to the absorbance data, for each concentration of inhibitor, to obtain the rate constant (the first 10 to 15 seconds were excluded as mixing causes errors in this portion of curve). The catalytic rate was calculated from the enzymatic rate constant minus the background rate constant. An exponential curve was generated using the catalytic rate constants versus the inhibitor concentration to obtain the Ki value for the inhibitor. The Ki value is indicative of the binding affinity between the test compound and cyclophilin A.

[3] = target: calcineurin/cyclophilin A (Homo sapiens (Human), UniProt P62937+P63098+Q08209); experiment: Calcineurin Phosphatase (CaN) Assay (+CypA); type: biochemical; conditions: in the presence of Cyp A, 1:1 complex with inhibitor; read-out: Calcineurin Phosphatase (CaN) Assay (+CypA) IC50
From the text: Calcineurin Phosphatase (CaN) Assay
The calcineurin phosphatase assay is a means for estimating the immunosuppressive potential of a test compound. Calcineurin is a serine-threonine protein phosphatase that on activation dephosphorylates members of the nuclear factor of activated T cells (NFAT), which are important in T lymphocyte activation.
To investigate the immunosuppressive potential of exemplary compounds of Formula I, which are cyclosporin analogs, their ability to inhibit calcineurin activity was measured in the presence and absence of Cyp A.
The CaN assay kit used is based on a colorimetric assay for measuring calcineurin phosphatase activity, and it is commercially available (Enzo Life Sciences and Calbiochem). Calmodulin is also required for calcineurin activity and RII phosphopeptide is used as an efficient peptide substrate for calcineurin. […] The detection of free phosphate released is based on the classic Malachite green assay.
Enzo Life Sciences CaN Assay Kit: BML-AK804
Malachite Green: BIOMOL Green™ reagent
Calmodulin (Human, recombinant): was thawed on ice, diluted 1:50 with 2× assay buffer, and then stored on ice.
Calcineurin: was thawed quickly, stored on ice immediately, diluted 1:12.5 with 1× assay buffer, and then stored on ice.
R-II Substrate: 915 μL ultrapure water (UPW) was added to the 1.5 mg vial substrate to give a final concentration of 0.75 mM.
Inhibitors: 2.5 mM inhibitor in 100% DMSO.
Cyp A: recombinant human CypA (Sigma C3805), 1 mg/ml; Recombinant 6-His tagged CypA prepared by the University of Edinburgh was also used.
Inhibitor dilutions: inhibitor compounds were diluted in UPW in polypropylene low-binding 96 well plates at 5× the final assay concentration.
Assay Setup: using the half area 96 well plates supplied with the kit, 10 μl UPW was added to duplicate wells to provide the non-inhibited control. 10 μl of the inhibitor or the inhibitor/Cyp A complex was added to the appropriate sample wells. 25 μl of the 2× assay buffer with CaM was added to all wells, then 5 μl of CaN was added to all wells (40 U per well final concentration) except duplicate ‘no calcineurin blank’ wells to which 5 μL 1× assay buffer was added. The assay plate was placed in an oven at 30° C. for 15 minutes to equilibrate to the reaction temperature. The reaction was started by the addition of 10 μl RII-peptide (0.15 mM final concentration). The reaction was allowed to proceed at 30° C. for a time period in which the reaction is linear for about 60 minutes. The reaction was then terminated by adding 100 μl of the Malachite Green reagent. The color was allowed to develop for 15-30 minutes at room temperature before the absorbance at 620 nm was measured using a plate reader (Molecular Devices—SpectraMax M5). The data were analyzed by subtracting ‘no Calcineurin blank’ from all the absorbance readings and plotting the background corrected absorbances against Log10 inhibitor concentration. A sigmoidal-dose response curve was fitted to the data using GraphPad Prism Software.
It exerts its immunosuppressive activity by binding to cyclophilin A to form a complex, which then binds to calcineurin and thereby inhibits calcineurin activity.

[4] = read-out: Protease-free PPIase Assay Ki, human recombinant Cyp A, 10 °C

Row | solubility at 18 h ([1]; pH 7.8, aqueous buffer) [µM] | Ki [2] [µM] | IC50 [3] [µM] | SMILES | Ki [2, 4] [µM] | solubility at 18 h ([1]; 35 mM HEPES buffer pH 7.8, aqueous buffer, 35 mM HEPES pH 7.8, 1% DMSO, 18 h, read-out: Water Solubility Assay, concentration at which the compound remains in solution) [µM]
1 | 75 to 100 (≈ 94.3 to 126 µg/mL) | 0.015 | 2.7 | CC[C@H]1NC(=O)[C@@H]([C@H](O)[C@H](C)Cc2nccn2C)N(C)C(=O)[C@@H](C(C)C)N(C)C(=O)[C@@H](CC(C)C)N(C)C(=O)[C@@H](CC(C)C)N(C)C(=O)[C@H](C)NC(=O)[C@@H](C)NC(=O)[C@@H](CC(C)C)N(C)C(=O)[C@@H](C(C)C)NC(=O)[C@H](CC(C)C)N(C)C(=O)[C@@H](C)N(C)C1=O [Compound 1, [(2S,3R,4R)-3-Hydroxy-4-methyl-2-(methylamino)-5-(1-methyl-1H-imidazol-2-yl)-pentanoic acid]^1 [(R)-methyl-Sar]^3 cyclosporin A] |  | 
2 | > 100 | 0.0032 | 1.16 | CC[C@H]1NC(=O)[C@@H]([C@H](O)[C@H](C)CCCc2ncccn2)N(C)C(=O)[C@@H](C(C)C)N(C)C(=O)[C@@H](CC(C)C)N(C)C(=O)[C@@H](CC(C)C)N(C)C(=O)[C@H](C)NC(=O)[C@@H](C)NC(=O)[C@@H](CC(C)C)N(C)C(=O)[C@@H](C(C)C)NC(=O)[C@H](CC(C)C)N(C)C(=O)[C@@H](C)N(C)C1=O [Compound 22, [(2S,3R,4R)-3-Hydroxy-4-methyl-2-(methylamino)-7-(pyrimidin-2-yl)-heptanoic acid]^1 [(R)-methyl-Sar]^3 cyclosporin A] |  | 
3 | 75 to 100 (≈ 95.2 to 127 µg/mL) |  | 3.45 | CC[C@H]1NC(=O)[C@@H]([C@H](O)[C@H](C)CCCc2ncccn2)N(C)C(=O)[C@@H](C(C)C)N(C)C(=O)[C@@H](CC(C)C)N(C)C(=O)[C@@H](CC(C)C)N(C)C(=O)[C@H](C)NC(=O)[C@@H](C)NC(=O)[C@@H](CC(C)C)N(C)C(=O)[C@@H](C(C)C)NC(=O)[C@H](CC(C)C)N(C)C(=O)CN(C)C1=O [Compound 32, [(2S,3R,4R)-3-Hydroxy-4-methyl-2-(methylamino)-7-(pyrimidin-2-yl)-heptanoic acid]^1 cyclosporin A] | 0.0083 | 
4 | 25 to 50 (≈ 32.3 to 64.6 µg/mL) | 0.0023 | > 10 | CC[C@H]1NC(=O)[C@@H]([C@H](O)[C@H](C)Cc2nc3ccccc3[nH]2)N(C)C(=O)[C@@H](C(C)C)N(C)C(=O)[C@@H](CC(C)C)N(C)C(=O)[C@@H](CC(C)C)N(C)C(=O)[C@H](C)NC(=O)[C@@H](C)NC(=O)[C@@H](CC(C)C)N(C)C(=O)[C@@H](C(C)C)NC(=O)[C@H](CC(C)C)N(C)C(=O)[C@@H](C)N(C)C1=O [Compound 9, [(2S,3R,4R)-1-(1H-Benzimidazol-2-yl)-3-hydroxy-4-methyl-2-(methylamino)pentanoic acid]^1 [(R)-methyl-Sar]^3 cyclosporin A] |  | 
5 | > 100 | 0.0038 | 1.46 | CC[C@H]1NC(=O)[C@@H]([C@H](O)[C@H](C)CCCc2ccn(C)n2)N(C)C(=O)[C@@H](C(C)C)N(C)C(=O)[C@@H](CC(C)C)N(C)C(=O)[C@@H](CC(C)C)N(C)C(=O)[C@H](C)NC(=O)[C@@H](C)NC(=O)[C@@H](CC(C)C)N(C)C(=O)[C@@H](C(C)C)NC(=O)[C@H](CC(C)C)N(C)C(=O)[C@@H](C)N(C)C1=O [Compound 25, [(2S,3R,4R)-3-Hydroxy-4-methyl-2-(methylamino)-7-(1-methylpyrazol-3-yl)heptanoic acid]^1 [(R)-methyl-Sar]^3 cyclosporin A] |  | 
6 | > 100 | 0.0077 | 1.26 | CC[C@H]1NC(=O)[C@@H]([C@H](O)[C@H](C)CCOc2ncccn2)N(C)C(=O)[C@@H](C(C)C)N(C)C(=O)[C@@H](CC(C)C)N(C)C(=O)[C@@H](CC(C)C)N(C)C(=O)[C@H](C)NC(=O)[C@@H](C)NC(=O)[C@@H](CC(C)C)N(C)C(=O)[C@@H](C(C)C)NC(=O)[C@H](CC(C)C)N(C)C(=O)[C@@H](C)N(C)C1=O [Compound 36, [(2S,3R,4R)-3-Hydroxy-4-methyl-2-(methylamino)-6-(pyrimidin-2-yloxy)-hexanoic acid]^1 cyclosporin A] |  | 
7 | > 100 | 0.0021 | 3.34 | CC[C@H]1NC(=O)[C@@H]([C@H](O)[C@H](C)CCCc2ccnn2C)N(C)C(=O)[C@@H](C(C)C)N(C)C(=O)[C@@H](CC(C)C)N(C)C(=O)[C@@H](CC(C)C)N(C)C(=O)[C@H](C)NC(=O)[C@@H](C)NC(=O)[C@@H](CC(C)C)N(C)C(=O)[C@@H](C(C)C)NC(=O)[C@H](CC(C)C)N(C)C(=O)[C@@H](C)N(C)C1=O [Compound 23, [(2S,3R,4R)-3-Hydroxy-4-methyl-2-(methylamino)-7-(2-methylpyrazol-3-yl)-heptanoic acid]^1 [(R)-methyl-Sar]^3 cyclosporin A] |  | 

Row | SMILES | solubility at 18 h ([1]; pH 7.8, aqueous buffer) [µM] | Ki [2] [µM] | IC50 [3] [µM] | Ki [2, 4] [µM] | solubility at 18 h ([1]; 35 mM HEPES buffer pH 7.8, aqueous buffer, 35 mM HEPES pH 7.8, 1% DMSO, 18 h, read-out: Water Solubility Assay, concentration at which the compound remains in solution) [µM]
8 | CC[C@H]1NC(=O)[C@@H]([C@H](O)[C@H](C)Cc2nccn2CCc2cccnc2)N(C)C(=O)[C@@H](C(C)C)N(C)C(=O)[C@@H](CC(C)C)N(C)C(=O)[C@@H](CC(C)C)N(C)C(=O)[C@H](C)NC(=O)[C@@H](C)NC(=O)[C@@H](CC(C)C)N(C)C(=O)[C@@H](C(C)C)NC(=O)[C@H](CC(C)C)N(C)C(=O)[C@@H](C)N(C)C1=O [Compound 7, [(2S,3R,4R)-3-Hydroxy-4-methyl-2-(methylamino) 5-(1-(pyridin-3-yl-ethyl)-1H-imidazol-2-yl)pentanoic acid]^1 [(R)-methyl-Sar]^3 cyclosporin A] |  |  | 7.85 | 0.0056 | > 100
